Laboratory results: patent US7285571B2, “Herbal chemical composition for the treatment of cancer” (Council of Scientific and Industrial Research, priority 2001, dated 2007)

How the values were obtained:
Assay type in all cases: cell-based
[1] = system: cancer cells of cervix; experiment: Growth inhibition of cancer cells of cervix; settings: Homo sapiens; concentration of about 100 μg/ml; SiHa; read-out: inhibits the growth of cancer cells of cervix
Method: (§1) The human cancer cell lines were obtained either from National center for cell science, Pune, India or National Cancer Institute, Frederick, Md., U.S.A. Cells were grown in tissue culture flasks in complete growth medium (RPMI-1640 medium with 2 mM glutamine, 100 μg/ml streptomycin, pH 7.4, sterilized by filtration and supplemented with 10% sterilized fetal calf serum and 100 units/ml penicillin before use) at 37° C. in an atmosphere of 5% CO2 and 90% relative humidity in a carbon dioxide incubator (WTB binder, Germany). The cells at subconfluent stage were harvested from the flask by treatment with trypsin (0.05% trypsin in PBS containing 0.02% EDTA) and suspended in complete growth medium. […]
(§2) Cell growth was measured by staining with sulforhodamine B dye (SRB). […] The optical density was recorded on ELISA reader at 540 run.
(§3) The cell growth in presence of test material was determined by subtracting mean OD value of respective blank from the mean OD value of experimental set. Like wise, cell growth in absence of test material (control set) and in presence of positive control was also determined. The percent cell growth in presence of test material was determined considering the cell growth in absence of test material as 100% and in turn percent inhibition was calculated.

[2] = system: SW-620; experiment: In vitro cytotoxicity (SRB), SW-620; settings: Homo sapiens, SW-620 (colon), 48-hours, read-out: Percent growth inhibition; for inhibition at 30 µg/mL: 30 μg/ml; for inhibition at 100 µg/mL: 100 μg/ml
Method: (§4) The human cancer cell lines were obtained either from National center for cell science, Pune, India or National Cancer Institute, Frederick, Md., U.S.A. Cells were grown in tissue culture flasks in complete growth medium (RPMI-1640 medium with 2 mM glutamine, 100 μg/ml streptomycin, pH 7.4, sterilized by filtration and supplemented with 10% sterilized fetal calf serum and 100 units/ml penicillin before use) at 37° C. in an atmosphere of 5% CO2 and 90% relative humidity in a carbon dioxide incubator (WTB binder, Germany). The cells at subconfluent stage were harvested from the flask by treatment with trypsin (0.05% trypsin in PBS containing 0.02% EDTA) and suspended in complete growth medium. Cells with cell viability of more than 97% by trypan blue exclusion technique were used for determination of cytotoxicity.
(§5) (−)-Matairesinol was dissolved in DMSO (dimethyl sulphoxide) to obtain a stock solution of 20 mg/ml. The stock solution was serially diluted with complete growth medium containing 50 μg/ml of gentamycin to obtain three working test solutions of 200, 60 and 20 μg/ml
(§6) The suspension of human cancer cell lines of required cell density in complete growth medium was prepared and cell suspension ([…] per wall) of each cell line) of 96-well tissue culture plate. Three additional wells of each cell line were also prepared for control. Two blank wells for control and each experimental and each experimental set for every cell line were also included that contained equivalent amount of complete growth medium only. The plates were incubated at 37° C. in an atmosphere of 5% CO2 and 90% relative humidity in a carbon dioxide incubator.
(§7) The working test solutions of (−)-Matairesinol of different concentrations (100 μl) were added after 24-hours incubation in all the wells including blanks of the experimental set. The equivalent amount of complete growth medium was added to control set.
(§8) The plates were further incubated for 48-hours (at 37° C. in an atmosphere of 5% CO2 and 90% relative humidity in a carbon dioxide incubator) after addition of test material etc. and then the cell growth was stopped by gently layering of 50 μl of TCA (50% trichloroacetic acid) on top of the medium in all the wells. The plates were incubated at 4° C. for one hour to fix the cells attached to the bottom of the wells. Liquids of all the wells were gently pipetted out and discarded. The plates were washed five times with distilled water to remove TCA, growth medium, low molecular weight metabolites, serum proteins etc. Plates were air-dried.
Cell growth was measured by staining with sulforhodamine B dye (SRB). The SRB solution (100 μl of 0.4% in 1% acetic acid) was added to each well and the plates were incubated at room temperature for 30 minutes. The unbound SRB was quickly removed by washing the wells five times with 1-% acetic acid and plates were air-dried. […] The optical density was recorded on ELISA reader at 540 run.
as §3

[3] = system: cancer cells of colon; experiment: Growth inhibition of cancer cells of colon; settings: Homo sapiens; concentration of about 100 μg/ml; Colo-205, HT-29 and SW-620; read-out: inhibits the growth of cancer cells of colon
Method: as §1, §2, §3

[4] = system: SKNMC; experiment: In vitro cytotoxicity (SRB), SKNMC; settings: Homo sapiens, SK-N-MC; SKNMC (neuroblastoma), 100 μg/ml, 48-hours; read-out: Percent growth inhibition
Method: as §1, §2, §3

[5] = system: ZR-75-1; experiment: In vitro cytotoxicity (SRB), ZR-75-1; settings: Homo sapiens; ZR-75-1 (breast), 100 μg/ml, 48-hours; read-out: Percent growth inhibition
Method: as §1, §2, §3

[6] = system: SiHa; experiment: In vitro cytotoxicity (SRB), SiHa; settings: Homo sapiens, SiHa (cervix), 48-hours, read-out: Percent growth inhibition; for inhibition at 10 µg/mL: 10 μg/ml; for inhibition at 30 µg/mL: 30 μg/ml; for inhibition at 100 µg/mL: 100 μg/ml
Method: as §4, §5, §6, §7, §8
(§9) Cell growth was measured by staining with sulforhodamine B dye (SRB). The SRB solution (100 μl of 0.4% in 1% acetic acid) was added to each well and the plates were incubated at room temperature for 30 minutes. The unbound SRB was quickly removed by washing the wells five times with 1-% acetic acid and plates were air-dried. Tris-buffer (100 μl of 0.01 M, pH 10.4) was added to all the wells and plates were gently stirred for 5 minutes on a mechanical stirrer. The optical density was recorded on ELISA reader at 540 run.
as §3

[7] = system: A-549; experiment: In vitro cytotoxicity (SRB), A-549; settings: Homo sapiens, A549, A-549 (lung), 48-hours, read-out: Percent growth inhibition; for inhibition at 10 µg/mL: 10 μg/ml; for inhibition at 30 µg/mL: 30 μg/ml; for inhibition at 100 µg/mL: 100 μg/ml
Method: as §4, §5, §6, §7, §8, §9, §3

[8] = system: cancer cells of lung; experiment: Growth inhibition of cancer cells of lung; settings: Homo sapiens, A549; concentration of about 100 μg/ml; A-549; read-out: inhibits the growth of cancer cells of lung
Method: as §1, §2, §3

[9] = system: IMR-32; experiment: In vitro cytotoxicity (SRB), IMR-32; settings: Homo sapiens; IMR-32 (neuroblastoma), 100 μg/ml, 48-hours; read-out: Percent growth inhibition
Method: as §1, §2, §3

[10] = system: Colo-205; experiment: In vitro cytotoxicity (SRB), Colo-205; settings: Homo sapiens, Colo-205 (colon), 48-hours, read-out: Percent growth inhibition; for inhibition at 10 µg/mL: 10 μg/ml; for inhibition at 30 µg/mL: 30 μg/ml; for inhibition at 100 µg/mL: 100 μg/ml
Method: as §4, §5, §6, §7, §8, §9, §3

[11] = system: Hep-2; experiment: In vitro cytotoxicity (SRB), Hep-2; settings: Homo sapiens; Hep-2 (liver), 100 μg/ml, 48-hours; read-out: Percent growth inhibition
Method: as §1, §2, §3

[12] = system: HT-29; experiment: In vitro cytotoxicity (SRB), HT-29; settings: Homo sapiens, HT-29 (colon), 48-hours, read-out: Percent growth inhibition; for inhibition at 30 µg/mL: 30 μg/ml; for inhibition at 100 µg/mL: 100 μg/ml
Method: as §4, §5, §6, §7
The plates were further incubated for 48-hours (at 37° C. in an atmosphere of 5% CO2 and 90% relative humidity in a carbon dioxide incubator) after addition of test material etc. and then the cell growth was stopped by gently layering of 50 μl of TCA (50% trichloroacetic acid) on top of the medium in all the wells. […]
as §2, §3

[13] = system: cancer cells of liver; experiment: Growth inhibition of cancer cells of liver; settings: Homo sapiens; concentration of about 100 μg/ml; Hep-2; read-out: inhibits the growth of cancer cells of liver
Method: as §1, §2, §3

[14] = system: MCF-7; experiment: In vitro cytotoxicity (SRB), MCF-7; settings: Homo sapiens, MCF7, MCF-7 (breast), 48-hours, read-out: Percent growth inhibition; for inhibition at 10 µg/mL: 10 μg/ml; for inhibition at 30 µg/mL: 30 μg/ml; for inhibition at 100 µg/mL: 100 μg/ml
Method: as §4, §5, §6, §7, §8, §9, §3

[15] = system: cancer cells of neuroblastoma; experiment: Growth inhibition of cancer cells of neuroblastoma; settings: Homo sapiens; concentration of about 100 μg/ml; SKNMC and IMR-32; read-out: inhibits the growth of cancer cells of neuroblastoma
Method: as §1, §2, §3

[16] = system: human cancer cell lines; experiment: In vitro cytotoxicity against the human cancer cell lines studied (panel); settings: for inhibition of cell growth of the human cancer cell lines studied (in words): 10, 30 and 100 μg/ml; for inhibition at 100 µg/mL: Homo sapiens, at 100 μg/ml, read-out: inhibition of cell growth, range over the human cancer cell lines studied
Method: as §4, §5, §6
The working test solutions of (−)-Matairesinol of different concentrations (100 μl) were added after 24-hours incubation in all the wells including blanks of the experimental set. The equivalent amount of complete growth medium was added to control set. […]
as §2, §3
In vitro cytotoxicity of (−)-matairesinol was determined against human breast (MCF-7 & ZR-75-1), neuroblastoma (SK-N-MC & IMR-32), cervix (SiHa), colon (Colo-205, HT-29 & SW-620), liver (HEP-2) and lung (A-549) cancer cell lines. […]

[17] = system: cancer cells of breast; experiment: Growth inhibition of cancer cells of breast; settings: Homo sapiens; concentration of about 100 μg/ml; MCF-7 and ZR-75-1; read-out: inhibits the growth of cancer cells of breast
Method: as §1, §2, §3

Structure (SMILES) | inhibition at 100 µg/mL [1] [%] | inhibition at 30 µg/mL [2] [%] | inhibition at 100 µg/mL [2] [%] | inhibition at 100 µg/mL [3] [%] | inhibition at 100 µg/mL [4] [%] | inhibition at 100 µg/mL [5] [%] | inhibition at 10 µg/mL [6] [%] | inhibition at 30 µg/mL [6] [%] | inhibition at 100 µg/mL [6] [%] | inhibition at 10 µg/mL [7] [%] | inhibition at 30 µg/mL [7] [%] | inhibition at 100 µg/mL [7] [%] | inhibition at 100 µg/mL [8] [%] | inhibition at 100 µg/mL [9] [%] | inhibition at 10 µg/mL [10] [%] | inhibition at 30 µg/mL [10] [%] | inhibition at 100 µg/mL [10] [%] | inhibition at 100 µg/mL [11] [%] | inhibition at 30 µg/mL [12] [%] | inhibition at 100 µg/mL [12] [%] | further results
COc1cc(CC2COC(=O)C2(O)Cc2ccc(O)c(OC)c2)ccc1O (stereo in doubt) [(−)-Wikstromol] | ≤ 37 | 20 | 50 | ≤ 67 | 44 | 37 | 16 | 21 | 37 | 21 | 37 | 56 | ≤ 56 | 56 | 5 | 27 | 67 | 46 | 6 | 32 | inhibition at 10 µg/mL ([2]; 10 μg/ml): 14%; inhibition at 100 µg/mL [13]: ≤ 46%; inhibition at 10 µg/mL [14]: 7%; inhibition at 30 µg/mL [14]: 26%; inhibition at 100 µg/mL [14]: 51%; inhibition at 100 µg/mL [15]: ≤ 56%; inhibition of cell growth of the human cancer cell lines studied (in words) [16]: dose dependent inhibition of cell growth; inhibition at 100 µg/mL [16]: 32 to 67%; inhibition at 100 µg/mL [17]: ≤ 51%
COc1cc(C[C@H]2COC(=O)[C@@H]2Cc2ccc(O)c(OC)c2)ccc1O [(−)-Matairesinol] | ≤ 63 | 11 | 68 | ≤ 93 | 75 | 62 | 10 | 29 | 63 | 19 | 33 | 65 | ≤ 65 | 77 | 15 | 28 | 93 | 64 | 10 | 74 | inhibition at 100 µg/mL [13]: ≤ 64%; inhibition at 10 µg/mL [14]: 10%; inhibition at 30 µg/mL [14]: 36%; inhibition at 100 µg/mL [14]: 54%; inhibition at 100 µg/mL [15]: ≤ 77%; inhibition of cell growth of the human cancer cell lines studied (in words) [16]: dose dependent inhibition of cell growth; inhibition at 100 µg/mL [16]: 54 to 93%; inhibition at 100 µg/mL [17]: ≤ 62%
